pIC50: −log10 of the molar value.
Columns and labels:
HDAC9 = HDAC9 (Homo sapiens, UniProt Q9UKV0); experiment: Inhibition of histone deacetylase isoforms, HDAC9
Description: (§1) Recombinant human enzymes were acquired from BPS Biosciences (CA, USA). Isoforms of Class I HDAC1, 2, 3; HDAC6, 10 of Class IIb and Class IV HDAC11 were tested using the Fluor-de-Lys fluorogenic synthetic substrate (Enzo Life Sciences, Plymouth Meeting, Pa.). […] Each inhibitor was dissolved in DMSO and then further diluted in an assay buffer. […] The assays were performed by pre-incubating each enzyme with the inhibitors for 15 minutes at 37° C. The reaction was started by adding the substrate at 37° C. and allowed to proceed for 60 minutes. The fluorescent signal was generated by adding 50 μL of a twice concentrated developer solution 2 (Enzo) containing trichostatin A 4 μM.

HDAC10 = biological target: T1, HDAC10 (Homo sapiens, UniProt Q969S8); experiment: Inhibition of histone deacetylase isoforms, HDAC10
T1 sequence (Q969S8 1-669): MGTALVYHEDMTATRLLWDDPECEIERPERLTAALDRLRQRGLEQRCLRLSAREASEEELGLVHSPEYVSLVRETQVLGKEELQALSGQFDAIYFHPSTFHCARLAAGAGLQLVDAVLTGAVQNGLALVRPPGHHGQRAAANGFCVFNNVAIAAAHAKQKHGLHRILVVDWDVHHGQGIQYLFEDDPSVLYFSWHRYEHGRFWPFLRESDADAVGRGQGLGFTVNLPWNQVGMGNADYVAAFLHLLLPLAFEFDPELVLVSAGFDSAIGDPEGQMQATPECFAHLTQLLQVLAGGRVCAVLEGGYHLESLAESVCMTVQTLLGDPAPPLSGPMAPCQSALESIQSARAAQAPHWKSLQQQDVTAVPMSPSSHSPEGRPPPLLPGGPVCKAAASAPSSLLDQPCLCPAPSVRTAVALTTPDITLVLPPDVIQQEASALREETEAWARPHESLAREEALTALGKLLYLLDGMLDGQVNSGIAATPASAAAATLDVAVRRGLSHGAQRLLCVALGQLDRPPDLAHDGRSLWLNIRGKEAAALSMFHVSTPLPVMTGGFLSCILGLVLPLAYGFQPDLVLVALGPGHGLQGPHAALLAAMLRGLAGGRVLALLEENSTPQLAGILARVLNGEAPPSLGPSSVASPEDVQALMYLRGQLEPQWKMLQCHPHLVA
Description: as §1

[1] = Monzani et al., EUROTOX 2007; cited from earlier work
[2] = tested on: HIV-1 expression in ACH-2 cells; experiment: Induction of the HIV-1 expression in the ACH-2 cell line (p24); type: cell-based; details: 24 hours
Description: ACH2 cells were obtained through AIDS Research and Reference Reagent Program, Division of AIDS, National Institute of Allergy and Infectious Diseases, National Institutes of Health, Bethesda, Md. The cells were cultured in flasks, washed in RPMI and resuspended in RPMI/10% FCS at a concentration of 2×10^6 cells/mL. […] After 24 hours of incubation at 37° C./5% CO2, 50 μL of supernatant were removed for the cytotoxicity assay of the lactate dehydrogenase (LDH) and Triton-X-100 (0.5% vol/vol final concentration) were added to each culture. The p24 assays of the lysates were performed immediately.
p24 was measured using specific antibodies immobilized on magnetic beads as previously described [Nold M. F. et al. J. Immunol. […] The levels of p24 for each experiment without HDAC inhibitors were fixed at 1.0 and the increase values by the number of times for each experiment and each analogous were calculated.

HDAC4 = HDAC4 (Homo sapiens, UniProt P56524); experiment: Inhibition of histone deacetylase isoforms, HDAC4
Description: as §1

bacteria = details: in vitro, Zolinza package leaflet; cited from earlier work
[3] = tested on: micronucleated erythrocytes; details: administered to mice, Zolinza package leaflet; cited from earlier work
[4] = 400 mg/day, Zolinza package leaflet; cited from earlier work
latent HIV reservoir = details: combined with HAART, clinical studies; cited from earlier work

Sequence of HDAC4 (P56524 whole entry, canonical isoform): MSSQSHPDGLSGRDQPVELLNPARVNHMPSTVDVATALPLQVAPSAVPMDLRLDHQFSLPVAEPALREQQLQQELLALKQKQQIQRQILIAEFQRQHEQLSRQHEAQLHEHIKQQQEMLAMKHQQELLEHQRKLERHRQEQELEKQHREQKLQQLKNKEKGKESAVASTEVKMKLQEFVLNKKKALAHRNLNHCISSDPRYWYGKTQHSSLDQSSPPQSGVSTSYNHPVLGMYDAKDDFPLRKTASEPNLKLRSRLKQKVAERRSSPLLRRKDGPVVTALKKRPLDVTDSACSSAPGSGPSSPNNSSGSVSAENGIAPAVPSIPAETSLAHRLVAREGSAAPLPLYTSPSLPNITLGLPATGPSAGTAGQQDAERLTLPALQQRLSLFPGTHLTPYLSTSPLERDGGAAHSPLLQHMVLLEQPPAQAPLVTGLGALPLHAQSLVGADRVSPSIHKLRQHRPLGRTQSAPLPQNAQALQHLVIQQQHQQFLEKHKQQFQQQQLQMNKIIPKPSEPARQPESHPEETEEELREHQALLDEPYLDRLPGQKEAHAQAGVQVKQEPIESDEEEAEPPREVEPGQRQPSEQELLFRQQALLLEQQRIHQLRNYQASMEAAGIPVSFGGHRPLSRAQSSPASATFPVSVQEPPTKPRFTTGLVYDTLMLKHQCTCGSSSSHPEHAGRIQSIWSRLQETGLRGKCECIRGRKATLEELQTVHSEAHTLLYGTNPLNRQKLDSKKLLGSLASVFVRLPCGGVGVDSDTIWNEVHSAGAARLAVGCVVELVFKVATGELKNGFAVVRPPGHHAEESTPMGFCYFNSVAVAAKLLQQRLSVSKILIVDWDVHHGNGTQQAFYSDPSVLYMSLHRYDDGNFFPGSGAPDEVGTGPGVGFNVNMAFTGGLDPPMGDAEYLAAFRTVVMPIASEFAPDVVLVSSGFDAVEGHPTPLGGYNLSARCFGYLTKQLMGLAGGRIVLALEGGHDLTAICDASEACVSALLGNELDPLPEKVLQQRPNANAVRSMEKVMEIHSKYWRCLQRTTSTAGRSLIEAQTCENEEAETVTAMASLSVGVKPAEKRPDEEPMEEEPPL
Sequence of HDAC9 (Q9UKV0 whole entry, canonical isoform): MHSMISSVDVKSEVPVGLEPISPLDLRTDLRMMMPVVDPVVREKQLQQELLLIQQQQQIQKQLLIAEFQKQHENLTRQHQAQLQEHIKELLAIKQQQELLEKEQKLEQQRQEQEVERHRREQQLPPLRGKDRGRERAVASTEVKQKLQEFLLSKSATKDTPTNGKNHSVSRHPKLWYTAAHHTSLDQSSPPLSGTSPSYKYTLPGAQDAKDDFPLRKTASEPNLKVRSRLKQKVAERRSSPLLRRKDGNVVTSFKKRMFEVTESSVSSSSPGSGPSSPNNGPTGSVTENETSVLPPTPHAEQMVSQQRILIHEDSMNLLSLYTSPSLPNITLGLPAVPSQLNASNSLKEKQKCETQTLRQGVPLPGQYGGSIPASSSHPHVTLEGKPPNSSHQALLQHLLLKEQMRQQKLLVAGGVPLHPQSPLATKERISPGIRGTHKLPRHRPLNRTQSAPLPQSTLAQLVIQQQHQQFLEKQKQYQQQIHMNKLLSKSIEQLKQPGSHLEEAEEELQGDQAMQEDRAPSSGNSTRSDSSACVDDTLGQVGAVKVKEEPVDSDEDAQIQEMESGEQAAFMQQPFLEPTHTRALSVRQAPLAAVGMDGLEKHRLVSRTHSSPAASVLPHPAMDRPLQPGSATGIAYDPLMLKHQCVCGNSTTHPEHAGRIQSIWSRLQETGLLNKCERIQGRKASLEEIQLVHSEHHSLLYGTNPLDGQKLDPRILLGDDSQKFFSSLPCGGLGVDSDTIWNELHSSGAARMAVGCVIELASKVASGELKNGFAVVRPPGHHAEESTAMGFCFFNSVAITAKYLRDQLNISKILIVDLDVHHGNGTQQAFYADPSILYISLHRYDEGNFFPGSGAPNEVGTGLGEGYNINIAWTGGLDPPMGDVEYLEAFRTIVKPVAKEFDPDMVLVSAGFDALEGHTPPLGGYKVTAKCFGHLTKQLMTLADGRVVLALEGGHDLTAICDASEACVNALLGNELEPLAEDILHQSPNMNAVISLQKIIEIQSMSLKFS

SMILES: CCN(CC)Cc1ccc2cc(COC(=O)Nc3ccc(C(=O)NO)cc3)ccc2c1.Cl [ITF2357, Diethyl-[6-(4-hydroxycarbamoyl-phenylcarbamoyloxymethyl)-naphtalen-2-yl-methyl]ammonium chloride]
- pIC50 (HDAC9): 6.29
- pIC50 (HDAC10): 6.45
- mutagenicity [1]: non-mutagenic
- increase of the number of times in the level of p24 with respect to control ([2]; 31 nM): 1 times
- increase of the number of times in the level of p24 with respect to control ([2]; 63 nM): 1 times
- increase of the number of times in the level of p24 with respect to control ([2]; 125 nM): 2 times
- increase of the number of times in the level of p24 with respect to control ([2]; 250 nM): 15 times
- pIC50 (HDAC4): 6.14

SMILES: O=C(CCCCCCC(=O)Nc1ccccc1)NO [SAHA]
- mutagenicity in bacterial back-mutation assays (Ames test) (bacteria): mutagenic
- incidence of micronucleated erythrocytes [3]: increases the incidence of micronucleated erythrocytes
- adverse effects in patients [4]: numerous, serious adverse effects such as diarrhoea, tiredness, nausea, thrombocytopenia, anorexia and dysgeusia

SMILES: CCCC(CCC)C(=O)O [VPA, Valproic acid]
- diminution of the latent reservoir (latent HIV reservoir): without leading to any considerable diminution of the latent reservoir
